{"source": "patent US9216974B2", "about": "“Phenoxazine derivatives and methods of use thereof” (Washington University, priority 2010, dated 2015)", "key": {"[1]": {"format": "physicochemical", "description": "Hydrophobicity affects drug absorption, bioavailability, hydrophobic drug-receptor interactions, metabolism of molecules, and their toxicity. […] The mixture will be incubated with agitation for 30 min until ionic and non-ionic forms of test compound reach equilibrium. Two layers will be separated by centrifugation. Test compound's concentrations in octanol and water layers will be determined by UV/VIS spectrophotometry. The log Poct value will be calculated from log (concentration in n-octanol fraction/concentration in water fraction). Experiments will be repeated at least 3 times with triplicated samples."}, "[2]": {"molecular_target": "CAA (cerebrovascular Aβ deposits) (Homo sapiens, UniProt P05067)", "assay": "In situ binding assay in fixed brain tissue, CAA", "design": "species or system Tg2576 mice", "text": "(§1) Tg2576 mice are a well characterized mouse model of AD and CAA. They develop congophilic Aβ aggregates within neuritic plaques and leptomeningeal and cortical penetrating arteries at 11 months of age (Hsiao et al., 1996; Kawarabayashi et al., 2001; Fryer et al., 2005; Han et al., 2008).\n(§2) The Ki values for CAA vs. neuritic plaques will be calculated utilizing the fluorescent amyloid-ligand methoxy-X34 and fluorescent microscopic method. […] Tissue sections (3 sections per reaction) will be then mounted and coverslipped. Photographs of methoxy-X34 binding images will be taken using a Nikon fluorescent microscope. The fluorescent intensity on cerebral amyloid deposits and neuritic plaques will be separately quantified using Image J software. Finally, Ki values will be calculated by plotting % bound vs. log concentrations of competitors followed by non-linear regression using the Graph Pad Prism software. The maximum binding will be obtained from the methoxy-X34 intensity in the absence of competitors, while non-specific binding will be detected by the fluorescent intensity in brain tissues incubated without methoxy-X34.\nIn situ binding assay: Tg2576 mice or littermate controls at 15 months of age will be perfused with phosphatebuffered saline (PBS) for 5 min. Brains will be removed, fixed in 4% paraformaldehyde, and preserved in 30% glucose-PBS solution at 4° C. Brains will be coronally sectioned using a microtome and kept in cryoprotectant solution at −20° C. To label amyloid deposits, brain sections (3 sections per reaction) will be permeabilized with PBS containing 0.25% Triton X-100 for 20 min at room temperature, followed by incubation with 1 μM methoxy-X34 in the presence or absence of competitors at various concentrations (10-9-10-6 M). Sections will be subjected to fluorescent microscopy using a Nikon Eclipse C600 microscope. The fluorescent intensity of methoxy-X34 in vessels and neuritic plaques will be quantified using the ImageJ software. The binding affinity (Ki) will be calculated using the Graph Pad Prism software."}, "CAA": {"molecular_target": "CAA (Homo sapiens, UniProt P05067)", "assay": "Binding affinities for CAA performed on isolated vessels determined by fluorescent binding", "conditions": "for Ki: read-out: Binding affinity Ki; for Kd: read-out: Binding affinity KD", "description": "The isolation of cerebral vessels for biochemical analysis will be performed as described (78, 98). […] After the cerebellum is removed, the brain will be homogenized in fivefold excess of vessel buffer. An equal volume of 26% dextran will be added, and the tissue will be centrifuged at 6200×g for 30 min at 4° C. The resulting vessels form a pellet, whereas the parenchymal “vessel-free” material forms a solid, compact disc at the top of the solution. The […] will be resuspended in vessel buffer and passed over a 40-μm nylon mesh to capture vessels. Vessel and parenchymal material will be lysed in 5 M guanidine, 50 mM Tris, pH 8, with protease inhibitor cocktail (Roche) for 3 hr."}, "CAA vs. neuritic plaques [3]": {"tested_on": "CAA vs. neuritic plaques", "assay": "Co-staining of fixed brain sections of Tg2576 mice with fluorescent amyloid dyes", "format": "binding", "conditions": "aged (16-month-old) Tg2576 mice", "text": "as §1"}, "[4]": {"tested_on": "cerebrovascular Aβ deposits", "assay": "In vivo live imaging of CAA amyloid deposits through closed cranial window", "conditions": "topical application through cranial window, resorufin 2 μM, 16-month-old Tg2576 mice", "description": "FIG. 4 depicts in vivo live imaging of CAA amyloid deposits through closed cranial window. A,B. Closed cranial window was prepared on the right parietal bone of 16-month-old Tg2576 mice. Leptomeningeal arterioles (B) were subjected to live imaging using a fluorescent microscope. […] Scale bars: in C-E: 250 μm, in E: 100 μm."}, "neuritic plaques": {"tested_on": "neuritic plaques", "assay": "In situ binding assay in fixed brain tissue, neuritic plaques", "design": "species or system Tg2576 mice", "conditions": "in situ binding assay at a concentration of 160 μM", "text": "as §1, §2\nIn situ binding assay: Tg2576 mice or littermate controls at 15 months of age will be perfused with phosphatebuffered saline (PBS) for 5 min. […] The fluorescent intensity of methoxy-X34 in vessels and neuritic plaques will be quantified using the ImageJ software. […]"}, "[5]": {"tested_on": "Aβ deposits in cerebral vessels", "assay": "Multi-photon microscopy of whole brains stained with resorufin and phalloidin", "conditions": "16-month-old Tg2576 mice"}, "CAA vs. neuritic plaques [6]": {"tested_on": "CAA vs. neuritic plaques", "assay": "Staining of paraffin-embedded cortical brain sections of a human AD patient (3D6 and resorufin)", "format": "binding", "conditions": "3D6 co-labeling", "text": "as §1"}, "[7]": {"conditions": "normal mice, cited from earlier work"}, "[8]": {"conditions": "literature value; cited from earlier work"}, "[9]": {"conditions": "normal rats; cited from earlier work"}}, "note": "“Also recorded” adds a separate entry of the source. Like-named read-outs stand apart in the source and are kept apart here."}
{"compound": "CCOc1ccc2nc3ccc(=O)cc-3oc2c1", "note": "[Ethoxy-resorufin, 7-ethoxyresorufin]", "values": [{"measurement": "lipophilicity", "setting": "[1]", "result": "moderate lipophilicity"}, {"measurement": "selective binding affinity for CAA deposits", "setting": "[2]", "result": "low nanomolar range"}, {"measurement": "Ki", "setting": "[2]; preliminary studies, read-out: binding affinity (Ki) for cerebrovascular Aβ deposits", "result": 247, "unit": "nM"}]}
{"compound": "COc1ccc2nc3ccc(=O)cc-3oc2c1", "note": "[Methoxy-resorufin]", "values": [{"measurement": "Ki", "setting": "CAA", "result": 4680, "unit": "nM"}]}
{"compound": "O=c1ccc2nc3ccc(O)cc3oc-2c1", "note": "[Resorufin, resorufin]", "values": [{"measurement": "staining of CAA vs. neuritic plaques", "setting": "CAA vs. neuritic plaques [3]", "result": "CAA>>>neuritic plaques"}, {"measurement": "staining of CAA vs. neuritic plaques", "setting": "CAA vs. neuritic plaques [3]; listed as resorufin", "result": "selectively bound fibrillar amyloid-laden arterioles"}, {"measurement": "fluorescent labeling of amyloid deposits in live mice", "setting": "[4]", "result": "selectively labeled amyloid deposits in arterioles"}, {"measurement": "fluorescent labeling of amyloid deposits in live mice", "setting": "[4]; listed as resorufin", "result": "marked fluorescent labeling within the walls of leptomeningeal arteries (but not in neuritic plaques); also recorded: visualized cerebrovascular Aβ deposits"}, {"measurement": "log Poct", "setting": "[1]; 30 min", "result": 0.427}, {"measurement": "binding to neuritic plaques", "setting": "neuritic plaques", "result": "negligible"}, {"measurement": "intensity of resorufin staining by vessel type", "setting": "[5]", "result": "greater in pial arterioles than in penetrating arterioles or capillaries"}, {"measurement": "staining of arterioles vs. neuritic plaques in human AD brain", "setting": "CAA vs. neuritic plaques [6]", "result": "selectively labeled 3D6-immunoreactive amyloid deposits in arterioles but less likely neuritic plaques; also recorded: prominent in 3D6-positive cerebral arterioles but was rarely seen in 3D6-positive neuritic plaques"}]}
{"compound": "C#COc1ccc2nc3ccc(=O)cc-3oc2c1", "note": "[WC-5-1]", "values": [{"measurement": "Kd", "setting": "CAA", "result": 828, "unit": "nM"}, {"measurement": "Ki", "setting": "CAA", "result": 4610, "unit": "nM"}]}
{"compound": "O=c1ccc2nc3ccc(OCCF)cc3oc-2c1", "note": "[WC-5-2]", "values": [{"measurement": "Kd", "setting": "CAA", "result": 800, "unit": "nM"}]}
{"compound": "O=c1ccc2nc3ccc(OCc4cn(CCF)nn4)cc3oc-2c1", "note": "[WC-5-3]", "values": [{"measurement": "Kd", "setting": "CAA", "result": 2380, "unit": "nM"}]}
{"compound": "COc1cccc(COc2ccc3nc4ccc(=O)cc-4oc3c2)c1", "note": "[WC-5-4]", "values": [{"measurement": "Kd", "setting": "CAA", "result": 537, "unit": "nM"}]}
{"compound": "COc1ccc(COc2ccc3nc4ccc(=O)cc-4oc3c2)cc1", "note": "[WC-5-5]", "values": [{"measurement": "Ki", "setting": "CAA", "result": 218, "unit": "nM"}]}
{"compound": "CC(=O)OCCOc1ccc2nc3ccc(=O)cc-3oc2c1", "note": "[WC-5-8]", "values": [{"measurement": "Ki", "setting": "CAA", "result": 860, "unit": "nM"}]}
{"compound": "O=c1ccc2nc3ccc(OCCBr)cc3oc-2c1", "note": "[WC-5-9]", "values": [{"measurement": "Kd", "setting": "CAA", "result": 927, "unit": "nM"}]}
{"compound": "O=c1ccc2nc3ccc(OCc4ccc(I)cc4)cc3oc-2c1", "note": "[WC-5-31]", "values": [{"measurement": "Kd", "setting": "CAA", "result": "> 10000", "unit": "nM"}]}
{"compound": "COCCOc1ccc2nc3ccc(=O)cc-3oc2c1", "note": "[WC-5-42]", "values": [{"measurement": "Ki", "setting": "CAA", "result": 347, "unit": "nM"}]}
{"compound": "COCCOCCOc1ccc2nc3ccc(=O)cc-3oc2c1", "note": "[WC-5-43]", "values": [{"measurement": "Ki", "setting": "CAA", "result": 407, "unit": "nM"}]}
{"compound": "COc1ccc(OCCOc2ccc3nc4ccc(=O)cc-4oc3c2)cc1", "note": "[WC-5-45]", "values": [{"measurement": "Ki", "setting": "CAA", "result": 421, "unit": "nM"}]}
{"compound": "COc1ccc(OCCOCCOc2ccc3nc4ccc(=O)cc-4oc3c2)cc1", "note": "[WC-5-47]", "values": [{"measurement": "Ki", "setting": "CAA", "result": "> 10000", "unit": "nM"}]}
{"compound": "[11CH3]Nc1ccc(-c2nc3ccc(O)cc3s2)cc1", "note": "[[^11C]PIB]", "values": [{"measurement": "brain level", "setting": "[7]; 2 min after injection", "result": 3.2, "unit": "% ID/g"}, {"measurement": "brain level", "setting": "[7]; 60 min", "result": 0.21, "unit": "% ID/g"}, {"measurement": "fraction in the brain cleared", "setting": "[7]; within 60 min", "result": 93, "unit": "%"}]}
{"compound": "COc1cc(/C=C/c2ccc(O)cc2)ccc1/C=C/c1ccc(O)cc1", "note": "[methoxy-X04, reference compound]", "values": [{"measurement": "log Poct", "setting": "[8]", "result": 2.6}, {"measurement": "fluorescent labeling of amyloid deposits in live mice", "setting": "[4]", "result": "staining was noted in both arterioles and senile plaques; also recorded: present in both cerebral arteries and parenchymal neuritic plaques"}, {"measurement": "brain clearance estimated half life (t½)", "setting": "[9]", "result": "~45", "unit": "min"}]}
{"compound": "COc1cc(C=Cc2ccc(O)c(C(=O)O)c2)ccc1C=Cc1ccc(O)c(C(=O)O)c1", "note": "[methoxy-X34, reference compound]", "values": [{"measurement": "staining of CAA vs. neuritic plaques", "setting": "CAA vs. neuritic plaques [3]", "result": "labeled amyloid deposited in both CAA and neuritic plaques; also recorded: visualized both CAA and neuritic plaques"}, {"measurement": "affinity for CAA vs. neuritic plaques", "setting": "[2]; in situ binding assay", "result": "almost an equal affinity for both CAA and neuritic plaques"}]}
{"compound": "methoxyphenyl-resorufin", "values": [{"measurement": "lipophilicity", "setting": "[1]", "result": "moderate lipophilicity"}, {"measurement": "selective binding affinity for CAA deposits", "setting": "[2]", "result": "low nanomolar range"}]}
{"compound": "phenyl-resorufin", "values": [{"measurement": "lipophilicity", "setting": "[1]", "result": "moderate lipophilicity"}, {"measurement": "selective binding affinity for CAA deposits", "setting": "[2]", "result": "low nanomolar range"}]}
